# In patent US20250032403A1, “COMPOSITIONS FOR TREATING PERIODONTAL DISEASES” (GR Biosystems, Inc., priority 2017, published 2025):
# Legend:
# HGF-1 cells = test: Cell viability of HGF-1 cells incubated with deferoxamine; assay type: cell-based, human; conditions: HGF-1, deferoxamine 50, 100, 150 μM
# Procedure: To better characterize the effectiveness of an iron chelator in regulating the upregulation of MMPs, HGF-1 cells were incubated with varying therapeutically relevant concentrations of deferoxamine (50, 100, 150 μM).
# MMP-3 = assay type: cell-based, human; conditions: HGF-1 stimulated with FAC 20, 50 and 100 μM, 48 hours, FIG. 11
# Procedure: MMP inhibition was tested using CMK and deferoxamine (DES).
# The supernatant was collected and assayed for protein concentration.
# MMP-2 = test: Western blot of MMP-2 in HGF-1 cells treated with FAC, CMK or deferoxamine; assay type: cell-based, human; conditions: HGF-1, FAC 20, 50 and 100 μM, 48 hours, FIG. 7
# Procedure: (§1) MMP inhibition was tested using CMK and deferoxamine (DES). Ferric ammonium citrate solid (FAC, Amresco) was prepared in 1 mM hydrochloric acid to form a 50 mM stock solution. Iron solutions were freshly made for each experiment and the iron content quantified through a colorimetric assay. Cells were induced with FAC concentrations of 20, 50, and 100 μM, LPS and CMK or a combination, and the cells were allowed to grow in the incubator for 48 hours.
# (§2) During the protein extraction, media was collected, flash frozen and saved for later analysis, including Western Blot and ELISA. Cells were washed with cold PBS and lysed with RIPA buffer (150 mM NaCl, 50 mM Tris, 1% Sodium deoxycholate, 1% Triton X-100 and 0.1% SDS). Cells were collected with a cell scraper and centrifuged at 14000 rpms for 30 minutes. The supernatant was collected and assayed for protein concentration. Samples were mixed with 4×SDS loading buffer (40% Glycerol, 8% SDS, 200 mM Tris-HCl, 400 mM dithiothreitol, 0.005% bromophenol blue) for further analysis.
# (§3) Gel electrophoresis was conducted using 12% sodium dodecyl sulfate (SDS) and polyacrylamide gels. Equal amounts (30-50 μg) of protein were loaded in each lane and allowed to separate for 1 hour at 150 V.
# (§4) Proteins from gels were transferred into 0.45 μm nitrocellulose paper (Bio-Rad) using tris-glycine transfer buffer with 20% methanol using 400 mAmp for 90 minutes. […]
# MMP-13 = conditions: HGF-1, FAC 20, 50 and 100 μM, 48 hours, FIG. 8
# Procedure: as §1, §2, §3, §4
# MMPs = conditions: HGF-1, 100 μM FAC, FIG. 17
# Procedure: (§5) Gene expression of MMPs was evaluated after treatment with CMK and deferoxamine. Tissue culture was washed with 1×PBS prior to collection of samples. Cells were lysed and RNA purified using an RNeasy mini kit (Cat #74104) from Qiagen. RNA prep Kit was used according to manufacturer's protocol. All samples were treated with Qiagen DNase (Cat #79254). One microgram of RNA was used for reverse transcription and subsequent SYBR® Green real time PCR for the genes of interest as previously described. Reverse transcription kits (Cat #330401) and SYBR Green real-time PCR master mixes (Cat #330523) were purchased from Qiagen (Louisville, KY).
# (§6) The following primers and probes were used: Human MMP-2; MMP2 (Cat #PPH00151B), Human MMP-8; MMP8 (Cat #PPH00908C), Human MMP-13; MMP13 (Cat #PPH00121B), Human MMP-14; MMP14 (Cat #PPH00198C), and Human glyceraldehyde 3-phosphate dehydrogenase; GAPDH (Cat #PPH00150F).
# (§7) FIG. 17 is a summary of the qPCR analysis for each MMP.
# Human MMP-8; MMP8 = conditions: HGF-1, 100 μM FAC, FIG. 17
# Procedure: as §5, §6, §7
# MMP-9 = test: Western blot of MMP-9 in HGF-1 cells treated with FAC or deferoxamine; assay type: cell-based, human; conditions: HGF-1 stimulated with FAC 20, 50 and 100 μM, 48 hours, FIG. 10
# Procedure: as §1, §2, §3, §4
# MMP-14 = test: Western blot of MMP-14 in HGF-1 cells treated with FAC, CMK or deferoxamine; assay type: cell-based, human; conditions: HGF-1, FAC 20, 50 and 100 μM, 48 hours, FIG. 9
# Procedure: as §1, §2, §3, §4
compound,measurement,setting,value
CC(=O)N(O)CCCCCNC(=O)CCC(=O)N(O)CCCCCNC(=O)CCC(=O)N(O)CCCCCN [deferoxamine],Cell viability,HGF-1 cells,unaffected
Ferric ammonium citrate [FAC],MMP-3 protein expression,MMP-3,increased expression
same,presence of MMP-2 protein,MMP-2,dose-dependent increased presence
same,presence of MMP-13 protein,MMP-13,dose-dependent increased presence
same,gene expression of the MMPs (qPCR),MMPs,acted as an inducer of gene expression of the MMPs
same,MMP-8 gene expression (qPCR),Human MMP-8; MMP8,except for MMP-8
same,MMP-9 protein expression,MMP-9,increased expression
same,presence of MMP-14 protein,MMP-14,dose-dependent increased presence
